In data set [1] the test system is recombinant NL-RLuc virus (NL4-3 with Renilla Luciferase gene). Put plainly: Inhibition of HIV replication (NL-RLuc luciferase reporter virus in MT-2 cells). The conditions noted are these: NL43, 120 h. Type of data set: cell-based. The text has this: Inhibition of HIV Replication:
A recombinant NL-RLuc proviral clone was constructed in which a section of the nef gene from NL4-3 was replaced with the Renilla Luciferase gene. This virus is fully infectious and can undergo multiple cycles of replication in cell culture. In addition, the luciferous reporter provides a simple and easy method for quantitating the extent of virus growth and consequently, the antiviral activity of test compounds. The plasmid pNLRLuc contains the proviral NL-Rluc DNA cloned into pUC18 at the PvuII site. The NL-RLuc virus was prepared by transfection of 293T cells with the plasmid pNLRLuc. Transfections were performed using the LipofectAMINE PLUS kit from Invitrogen (Carlsbad, Calif.) according to the manufacturer and the virus generated was titered in MT-2 cells. For susceptibility analyses, the titrated virus was used to infect MT-2 cells in the presence of compound, and after 5 days of incubation, cells were processed and quantitated for virus growth by the amount of expressed luciferase. Assay media was RPMI 1640 supplemented with 10% heat inactivated fetal bovine serum (FBS), 100 units/ml penicillin G/100 units/ml streptomycin, 10 mM HEPES buffer pH 7.55 and 2 mM L-glutamine. The results from at least 2 experiments were used to calculate the EC50 values. Luciferase was quantitated using the Dual Luciferase kit from Promega (Madison, Wis.). Susceptibility of viruses to compounds was determined by incubation in the presence of serial dilutions of the compound. The 50% effective concentration (EC50) was calculated by using the exponential form of the median effect equation where (Fa)=1/[1+(ED50/drug conc.)^m] (Johnson V A, Byington R T. Infectivity Assay. In Techniques in HIV Research. ed. Aldovini A, Walker B D. 71-76. New York: Stockton Press. 1990).
A general note: In a reporter assay the amount or activity of a reporter protein is the signal.

This passage reports ring closure, yield of all isomers and EC50 results from patent publication US9834566B2, “Pyrazolopyrimidine macrocycles as inhibitors of human immunodeficiency virus replication” (priority 2014, dated 2017).

The EC50 is the midpoint of the concentration-response curve.

Read-outs that look alike come from different tables or passages of the source.

`CCOC(=O)[C@@H](OC(C)(C)C)c1c(C)nc2cc3nn2c1N1CCC(C)(CC1)OCC=CC[C@H](C)Oc1ccc(C(=O)OC)cc1-c1cccc-3c1`: the ring closure, yield of all isomers (from C=CCOC1(C)CCN(c2c([C@H](OC(C)(C)C)C(=O)OCC)c(C)nc3cc(-c4cccc(-c5cc(C(=O)OC)ccc5O[C@@H](C)CC=C)c4)nn23)CC1, rcm bond, Hoveyda-Grubbs II (with CuI), DCE, 1.52 mM, 80.0 °C, 3.0 h) came out at 83%.

With `Cc1ccc2cc1OCCN(Cc1ccccc1)CCOc1cc(F)ccc1-c1cccc(c1)-c1cc3nc(C)c([C@H](OC(C)(C)C)C(=O)O)c-2n3n1` [Example 18, (2S)-2-(tert-Butoxy)-2-{18-fluoro-4-methyl-21,29,33-trioxa-5,7,8-triazaoctacyclo [28.6.2.1^6,^9.1^10,^14.1^23,^27.0^2,^7.0^15,^20.0^34,^38]hentetraconta-1(36),2,4,6(41),8,10(40),11,13, 15(20),16,18,23,25,27(39),34,37-hexadecaen-3-yl}acetic acid], the EC50 in data set [1] was 1140 nM.

Consider `C=C1COc2cc(F)ccc2-c2cccc(c2)-c2cc3nc(C)c([C@H](OC(C)(C)C)C(=O)O)c(n3n2)-c2ccc(F)cc2OC1` [Example 19, (2S)-2-(tert-butoxy)-2-{13,23-difluoro-7-methyl-18-methylidene-16,20-dioxa-3,4,6-triazahexacyclo[25.3.1.1^2,5.0^4,9.0^10,15.0^21,26]dotriaconta-1(31),2,5(32),6,8,10,12,14,21(26),22,24,27,29-tridecaen-8-yl}acetic acid], for which the EC50 in data set [1] was found to be 3590 nM.

Regarding `Cc1ccc2c(c1)OCCCCCOc1cc(F)ccc1-c1cccc(c1)-c1cc3nc(C)c([C@H](OC(C)(C)C)C(=O)O)c-2n3n1` [Example 20, (2S)-2-(tert-butoxy)-2-{25-fluoro-7, 13-dimethyl-16, 22-dioxa-3,4,6-triazahexacyclo[27.3.1.1^2,5.0^4,9.0^10,15.0^23,28]tetratriaconta-1(33),2,5(34),6,8,10,12,14, 23(28),24,26,29,31-tridecaen-8-yl}acetic acid], the EC50 in data set [1] stood at 2780 nM.

Take `Cc1nc2cc3nn2c(c1[C@H](OC(C)(C)C)C(=O)O)-c1ccc2c(c1)C(CCO2)OCCCCCOc1cc(F)ccc1-c1cccc-3c1` (stereo partly drawn) [Example 21, (2S)-2-(tert-Butoxy)-2-{18-fluoro-4-methyl-21,27,31-trioxa-5,7,8-triazaheptacyclo[26.6.2.1^6,9.1^10,14.0^2,7.0^15,20.0^32,36]octatriaconta-1(34),2,4,6(38),8,10(37),11,13,15(20),16,18,32,35-tridecaen-3-yl}acetic acid]: the EC50 in data set [1] is 695 nM.

As to `Cc1nc2cc3nn2c(c1[C@H](OC(C)(C)C)C(=O)O)-c1ccc2c(c1)C(CCO2)OCCCCCCOc1cc(F)ccc1-c1cccc-3c1` (stereo partly drawn) [Example 22, (2S)-2-(tert-butoxy)-2-{18-fluoro-4-methyl-21,28,32-trioxa-5,7,8-triazaheptacyclo[27.6.2.1^6,9.1^10,14.0^2,7.0^15,20.0^33,37]nonatriaconta-1(35),2,4,6(39),8,10(38),11,13,15(20),16,18,33,36-tridecaen-3-yl}acetic acid], in data set [1], the EC50 came to 1440 nM.

Turning to `Cc1nc2cc3nn2c(c1[C@H](OC(C)(C)C)C(=O)O)-c1ccc2c(c1)C(CCO2)OCc1cccc(c1)COc1cc(F)ccc1-c1cccc-3c1` (stereo partly drawn) [Example 23, (2S)-2-(tert-butoxy)-2-{18-fluoro-4-methyl-21, 29, 33-trioxa-5,7,8-triazaoctacyclo[28.6.2.1^6,9.1^10,14.1^23,27.0^2,7.0^15,20.0^34,38]hentetraconta-1(36),2,4,6(41),8,10(40),11,13,15(20),16,18, 23, 25, 27(39),34,37-hexadecaen-3-yl}acetic acid], the EC50 in data set [1] turned out to be 123 nM. This compound also gave a ring closure, yield of all isomers (from COC(=O)[C@@H](OC(C)(C)C)c1c(C)nc2cc(-c3cccc(-c4ccc(F)cc4OCc4cccc(CBr)c4)c3)nn2c1-c1ccc2c(c1)C(O)CCO2, ether bond, NaH, THF, 2.77 mM, 25.0 °C, 5.0 h, 2 steps) of 7.2%.

For `Cc1nc2cc3nn2c(c1[C@H](OC(C)(C)C)C(=O)O)N1CCC(C)(CC1)OCCOCCOc1cc(F)ccc1-c1cccc-3c1` [Example 24, (2S)-2-(tert-Butoxy)-2-{18-fluoro-4,28-dimethyl-21, 24, 27-trioxa-1,5,7,8-tetraazahexacyclo[26.2.2.1^6,9.1^10,14.0^2,7.0^15,20]tetratriaconta-2,4,6(34),8,10(33),11,13,15(20),16,18-decaen-3-yl}acetic acid], the EC50 in data set [1] came to 6 nM.

On to `Cc1nc2cc3nn2c(c1[C@H](OC(C)(C)C)C(=O)O)N1CCC(C)(CC1)OCCCC[C@H](C)Oc1ccc(C(=O)NCCc2ccc(F)cc2)cc1-c1cccc-3c1` [Example 25, (2S)-2-(tert-Butoxy)-2-[(22S)-17-{[2-(4-fluorophenyl)ethyl]carbamoyl}-4,22,28-trimethyl-21,27-dioxa-1,5,7,8-tetraazahexacyclo[26.2.2.1^6,9.1^10,14.0^2,7.0^15,20]tetratriaconta-2,4,6(34),8,10(33),11,13,15(20),16,18-decaen-3-yl]acetic acid], for which the EC50 in data set [1] was 4 nM.

For `Cc1nc2cc3nn2c(c1[C@H](OC(C)(C)C)C(=O)O)N1CCC(C)(CC1)OCCCC[C@H](C)Oc1ccc(C(=O)N(C)CCc2ccc(F)cc2)cc1-c1cccc-3c1` [Example 26, (2S)-2-(tert-Butoxy)-2-[(22S)-17-{[2-(4-fluorophenyl)ethyl](methyl)carbamoyl}-4, 22, 28-trimethyl-21, 27-dioxa-1,5,7,8-tetraazahexacyclo[26.2.2.1^6,9.1^10,14.0^2,7.0^15,20]tetratriaconta-2,4,6(34),8,10(33),11,13,15(20),16,18-decaen-3-yl]acetic acid], the EC50 in data set [1] was 3 nM.
